Counter-ions that a name gives are not always drawn.
These compounds were tested against human recombinant DGK ξ (Homo sapiens (Human), UniProt Q13574) (assay: Evaluation of DGK ξ inhibitory effect (ADP-Glo Kinase Assay)).
Type: biochemical
Procedure: Test Example 1: Evaluation of DGK ξ Inhibitory Effect
The inhibitory effect of a test compound on human recombinant DGK ξ (Carna Biosciences, Inc., 12-410-20N) was examined by the following method in which detection is performed with ADP-Glo™ Kinase Assay (Promega Corporation).
To a 384-well plate (Greiner Bio-One Co., Ltd.), 3 μL of a […] dissolved in an assay buffer (40 mM Tris-HCl pH 7.5, 10 mM MgCl2, 1 mM dithiothreitol (DTT) and 0.1 mg/mL bovine serum albumin (BSA)) (90 ng/mL) was added, and 3 μL of the test compound diluted with the same assay buffer was added so that an intended final concentration was obtained. The mixture was left standing at room temperature for 15 minutes, 3 μL of a substrate (150 μM 1-oleoyl-2-acetyl-sn-glycerol (Sigma-Aldrich Co. LLC.), 480 μM phosphatidylserine (Avanti Polar Lipids, Inc.) and 150 μM UltraPure-ATP (attached to ADP-Glo)) was then added, and the mixture was left standing at room temperature for 30 minutes to react. Thereafter, 3 μL of an ADP-Glo Reagent was added, and the mixture was left standing at room temperature for 40 minutes to stop the enzyme reaction. Further, 6 μL of a Kinase-Detection Reagent was added, the mixture was left standing at room temperature for 30 minutes, and the luminescence was then measured using ARVO X3 (PerkinElmer, Inc.). The half maximal inhibitory concentration (IC50) was calculated by Sigmoid-Emax model non-linear regression analysis, where the signal value in solvent treatment was set to 0% inhibition and the signal value without addition of the DGK ξ enzyme was set to 100% inhibition. […] In the table, Ex represents the number of each Example described below. Also, in the table, compound C (cpd. C) represents the test compound of the Example 199 described in the international publication WO 2008/054702.

Chain of human recombinant DGK ξ (Q13574 whole entry): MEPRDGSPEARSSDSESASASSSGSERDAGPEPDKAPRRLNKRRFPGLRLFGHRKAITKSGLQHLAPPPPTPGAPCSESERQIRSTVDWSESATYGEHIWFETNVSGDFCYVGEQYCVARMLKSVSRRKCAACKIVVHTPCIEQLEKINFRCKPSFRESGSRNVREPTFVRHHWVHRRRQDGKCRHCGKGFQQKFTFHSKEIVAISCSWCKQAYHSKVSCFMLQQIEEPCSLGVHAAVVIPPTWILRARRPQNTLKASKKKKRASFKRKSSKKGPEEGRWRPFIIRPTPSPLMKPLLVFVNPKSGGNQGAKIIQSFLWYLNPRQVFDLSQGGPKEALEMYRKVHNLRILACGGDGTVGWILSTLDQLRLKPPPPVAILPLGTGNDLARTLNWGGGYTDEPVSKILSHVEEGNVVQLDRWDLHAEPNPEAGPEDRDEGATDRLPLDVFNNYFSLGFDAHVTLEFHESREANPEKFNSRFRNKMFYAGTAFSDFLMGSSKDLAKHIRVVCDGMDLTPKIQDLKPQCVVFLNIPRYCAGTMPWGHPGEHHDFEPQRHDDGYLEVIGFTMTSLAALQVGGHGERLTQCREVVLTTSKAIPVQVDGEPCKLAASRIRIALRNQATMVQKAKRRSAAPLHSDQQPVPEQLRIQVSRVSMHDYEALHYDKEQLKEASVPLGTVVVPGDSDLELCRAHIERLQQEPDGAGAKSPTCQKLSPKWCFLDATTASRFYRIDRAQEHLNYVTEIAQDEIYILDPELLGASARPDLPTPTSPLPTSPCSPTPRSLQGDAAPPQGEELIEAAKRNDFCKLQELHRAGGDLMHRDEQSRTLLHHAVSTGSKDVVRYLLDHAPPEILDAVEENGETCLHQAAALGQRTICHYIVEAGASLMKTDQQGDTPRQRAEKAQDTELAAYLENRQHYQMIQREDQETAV

SMILES | IC50 [µM]
CN1CCC2(CC1)CN(c1c(NC(=O)c3csc(-c4ccnnc4)n3)ccc(Oc3ccccc3)c1C(F)(F)F)CCO2 [Example 1, N-[2-(9-methyl-1-oxa-4,9-diazaspiro[5.5]undecan-4-yl)-4-phenoxy-3-(trifluoromethyl)phenyl]-2-(pyridazin-4-yl)-1,3-thiazole-4-carboxamide] | 0.003
O=C(Nc1ccc(Oc2ccccc2)c(C(F)(F)F)c1C1=CCN(Cc2cc[nH]n2)CC1)c1csc(-c2ccnnc2)n1 [Example 2] | 0.053
O=C(Nc1ccc(OC2CC2)c(C(F)(F)F)c1C1=CCN(Cc2cc[nH]n2)CC1)c1csc(-c2ccnnc2)n1 [Example 3] | 0.02
O=C(Nc1ccc(OC2CCC2)c(F)c1C1=CCN(Cc2cc[nH]n2)CC1)c1csc(-c2ccnnc2)n1 [Example 4] | 0.05
O=C(Nc1cc(F)c(OC2CC2)c(F)c1C1=CCN(Cc2cc[nH]n2)CC1)c1csc(-c2ccnnc2)n1 [Example 5] | 0.048
CNC[C@H]1CN(c2c(NC(=O)c3csc(-c4ccnnc4)n3)ccc(Oc3ccccc3)c2C(F)(F)F)CCN1C [Example 6, N-[2-{(3S)-4-methyl-3-[(methylamino)methyl]piperazin-1-yl}-4-phenoxy-3-(trifluoromethyl)phenyl]-2-(pyridazin-4-yl)-1,3-thiazole-4-carboxamide] | 0.003
NCC[C@@H]1CCCN(c2c(NC(=O)c3csc(-c4ccnnc4)n3)ccc(Oc3ccccc3)c2C(F)(F)F)C1 [Example 7] | 0.11
CN1CCN(c2c(NC(=O)c3csc(-c4ccnnc4)n3)ccc(Oc3ccccc3)c2C(F)(F)F)C[C@@H]1CN [Example 8] | 0.009
O=C(Nc1ccc(Oc2ccccc2)c(C(F)(F)F)c1N1CCOC2(CCNCC2)C1)c1csc(-c2ccnnc2)n1 [Example 12] | 0.017
NC[C@@H]1CCCN(c2c(NC(=O)c3csc(-c4ccnnc4)n3)ccc(OC3CC3)c2C(F)(F)F)C1 [Example 13] | 0.013
NC[C@@H]1CCCN(c2c(NC(=O)c3csc(-c4ccnnc4)n3)ccc(OC3CCC3)c2C(F)(F)F)C1 [Example 14] | 0.013
NC[C@@H]1CCCN(c2c(NC(=O)c3csc(-c4ccnnc4)n3)ccc(OC3CCCC3)c2C(F)(F)F)C1 [Example 15] | 0.007
Cn1cc(Oc2ccc(NC(=O)c3csc(-c4ccnnc4)n3)c(N3CCC[C@@H](CN)C3)c2C(F)(F)F)cn1 [Example 16] | 0.041
Cn1ccc(Oc2ccc(NC(=O)c3csc(-c4ccnnc4)n3)c(N3CCC[C@@H](CN)C3)c2C(F)(F)F)n1 [Example 17] | 0.013
NC[C@@H]1CCCN(c2c(NC(=O)c3csc(-c4ccnnc4)n3)ccc(Nc3ccccc3)c2C(F)(F)F)C1 [Example 18] | 0.019
NC[C@H]1CCCN1c1c(NC(=O)c2csc(-c3ccnnc3)n2)ccc(Oc2ccccc2F)c1C(F)(F)F [Example 19] | 0.015
CNC[C@H]1CCCN1c1c(NC(=O)c2csc(-c3ccnnc3)n2)ccc(Oc2ccccc2F)c1C(F)(F)F [Example 20] | 0.044
Cc1ccccc1Oc1ccc(NC(=O)c2csc(-c3ccnnc3)n2)c(N2CCC[C@@H](CN)C2)c1C(F)(F)F [Example 21] | 0.006
NC[C@@H]1CCCN(c2c(NC(=O)c3csc(-c4ccnnc4)n3)ccc(Oc3c(F)cccc3F)c2C(F)(F)F)C1 [Example 22] | 0.005
NC[C@@H]1CCCN(c2c(NC(=O)c3csc(-c4ccnnc4)n3)ccc(Oc3c(F)cc(F)cc3F)c2C(F)(F)F)C1 [Example 23] | 0.01
NC[C@@H]1CCCN(c2c(NC(=O)c3csc(-c4ccnnc4)n3)cc(F)c(Oc3ccccc3)c2F)C1 [Example 24] | 0.011
NC[C@@H]1CN(c2c(NC(=O)c3csc(-c4ccnnc4)n3)ccc(Oc3ccccc3)c2C(F)(F)F)CCO1 [Example 25] | 0.042
CNC[C@@H]1CN(c2c(NC(=O)c3csc(-c4ccnnc4)n3)ccc(Oc3ccccc3)c2C(F)(F)F)CCO1 [Example 26] | 0.046
NC[C@H]1CN(c2c(NC(=O)c3csc(-c4ccnnc4)n3)ccc(Oc3ccccc3)c2C(F)(F)F)CCO1 [Example 27] | 0.09
NC[C@@H]1CCCN(c2c(NC(=O)c3csc(-c4ccnnc4)n3)ccc(-c3ccccc3)c2C(F)(F)F)C1 [Example 28] | 0.042
CNC[C@H]1CN(c2c(NC(=O)c3csc(-c4ccnnc4)n3)ccc(Oc3ccccc3)c2C(F)(F)F)CCO1 [Example 29] | 0.426
NCC[C@@H]1CN(c2c(NC(=O)c3csc(-c4ccnnc4)n3)ccc(Oc3ccccc3)c2C(F)(F)F)CCO1 [Example 30] | 0.039

SMILES | IC50 [µM]
NC[C@H]1CCCN(c2c(NC(=O)c3csc(-c4ccnnc4)n3)ccc(Oc3ccccc3)c2C(F)(F)F)C1 [Example 32] | 0.031
NC[C@@H]1CCCN(c2c(NC(=O)c3csc(-c4ccnnc4)n3)ccc(Oc3ccccc3Cl)c2C(F)(F)F)C1 [Example 35] | 0.002
CNC[C@@H]1CCCN(c2c(NC(=O)c3csc(-c4ccnnc4)n3)ccc(Oc3ccccc3Cl)c2C(F)(F)F)C1 [Example 36] | 0.013
CNC[C@H]1CCCN1c1c(NC(=O)c2csc(-c3ccnnc3)n2)ccc(Oc2ccccc2)c1C(F)(F)F [Example 37] | 0.026
N#Cc1ccccc1Oc1ccc(NC(=O)c2csc(-c3ccnnc3)n2)c(N2CCC[C@@H](CN)C2)c1C(F)(F)F [Example 38] | 0.003
NC[C@@H]1CCCN(c2c(NC(=O)c3csc(-c4ccnnc4)n3)ccc(Oc3ccccn3)c2C(F)(F)F)C1 [Example 39] | 0.007
NC[C@@H]1CCCN(c2c(NC(=O)c3csc(-c4ccnnc4)n3)ccc(Oc3cccc(Cl)c3)c2C(F)(F)F)C1 [Example 40] | 0.05
NC[C@@H]1CCCN(c2c(NC(=O)c3csc(-c4ccnnc4)n3)ccc(Oc3ccc(F)cc3)c2C(F)(F)F)C1 [Example 41] | 0.011
O=C(Nc1ccc(Oc2ccccc2)c(C(F)(F)F)c1N1CCCC2(CCNCC2)C1)c1csc(-c2ccnnc2)n1 [Example 42] | 0.023
CNC[C@@H]1CCCN(c2c(NC(=O)c3csc(-c4ccnnc4)n3)ccc(Oc3ccc(F)cc3)c2C(F)(F)F)C1 [Example 43] | 0.036
Cn1nccc1Oc1ccc(NC(=O)c2csc(-c3ccnnc3)n2)c(N2CCC[C@@H](CN)C2)c1C(F)(F)F [Example 44] | 0.019
NCC[C@H]1CCCN1c1c(NC(=O)c2csc(-c3ccnnc3)n2)ccc(Oc2ccccc2)c1C(F)(F)F [Example 45] | 0.024
CNCC[C@H]1CCCN1c1c(NC(=O)c2csc(-c3ccnnc3)n2)ccc(Oc2ccccc2)c1C(F)(F)F [Example 46] | 0.04
NC[C@@H]1CCCN(c2c(NC(=O)c3csc(-c4ccnnc4)n3)ccc(N3CCCC3)c2C(F)(F)F)C1 [Example 47] | 0.147
CNC[C@@H]1CCCN(c2c(NC(=O)c3csc(-c4ccnnc4)n3)ccc(Oc3ccccc3)c2C(F)(F)F)C1 [Example 49, N-[2-{(3S)-3-[(methylamino)methyl]piperidin-1-yl}-4-phenoxy-3-(trifluoromethyl)phenyl]-2-(pyridazin-4-yl)-1,3-thiazole-4-carboxamide] | 0.01
CNC[C@H]1CCCN(c2c(NC(=O)c3csc(-c4ccnnc4)n3)ccc(Oc3ccccc3)c2C(F)(F)F)C1 [Example 50] | 0.023
CNC[C@@H]1CCCN(c2c(NC(=O)c3csc(-c4ccnnc4)n3)ccc(Oc3cccc(F)c3)c2C(F)(F)F)C1 [Example 51] | 0.016
CCNC[C@@H]1CCCN(c2c(NC(=O)c3csc(-c4ccnnc4)n3)ccc(Oc3cccc(F)c3)c2C(F)(F)F)C1 [Example 52] | 0.023
COCCNC[C@@H]1CCCN(c2c(NC(=O)c3csc(-c4ccnnc4)n3)ccc(Oc3cccc(F)c3)c2C(F)(F)F)C1 [Example 53] | 0.027
CN(C)C[C@H]1CCCN(c2c(NC(=O)c3csc(-c4ccnnc4)n3)ccc(Oc3ccccc3)c2C(F)(F)F)C1 [Example 54, N-[2-{(3R)-3-[(dimethylamino)methyl]piperidin-1-yl}-4-phenoxy-3-(trifluoromethyl)phenyl]-2-(pyridazin-4-yl)-1,3-thiazole-4-carboxamide dihydrochloride] | 0.017
CN(C)C[C@@H]1CCCN(c2c(NC(=O)c3csc(-c4ccnnc4)n3)ccc(Oc3ccccc3)c2C(F)(F)F)C1 [Example 55] | 0.099
CN(C)C[C@@H]1CN(c2c(NC(=O)c3csc(-c4ccnnc4)n3)ccc(Oc3ccccc3)c2C(F)(F)F)CCO1 [Example 56] | 0.029
CN(C)C[C@@H]1CCCN(c2c(NC(=O)c3csc(-c4ccnnc4)n3)cc(F)c(Oc3ccccc3)c2F)C1 [Example 57] | 0.24
CN(C)CC[C@@H]1CN(c2c(NC(=O)c3csc(-c4ccnnc4)n3)ccc(Oc3ccccc3)c2C(F)(F)F)CCO1 [Example 58] | 0.144
O=C(Nc1ccc(Oc2ccccc2)c(C(F)(F)F)c1N1CCOC2(CCN(CCO)CC2)C1)c1csc(-c2ccnnc2)n1 [Example 60] | 0.003
COCCN1CCC2(CCCN(c3c(NC(=O)c4csc(-c5ccnnc5)n4)ccc(Oc4ccccc4)c3C(F)(F)F)C2)CC1 [Example 61] | 0.003
